Laboratory results: patent publication US7022716B2, “Cyclic amine phenyl beta-3 adrenergic receptor agonists” (Wyeth, priority 2000, dated 2006)

What follows are compounds tested against T1, human β3 adrenergic receptor (Homo sapiens, UniProt P13945) (assay: cAMP (SPA) response in CHO cells transfected with human β3 adrenergic receptor). Settings: maximal response relative to maximal response of isoproterenol at 10^-5 M.
T1 construct: Full length β3 AR clones (402 amino acids) containing the last 6 amino acids of hβ3-AR are prepared; expressed in transfected cells; host or cells: CHO (Chinese hamster ovary) cells
Type: cell-based
Parameters: key: fraction of maximal isoproterenol (10^-5 M) response
Description: Binding to the receptors was measured in Chinese Hamster ovary (CHO) cells that were transfected with adrenergic receptors.
The corresponding primer sequences are described in Mantzoros, C. […] The four fragments are ligated into a pUC 18 plasmid (Gibco-BRL) and sequenced.
CHO cells were grown in 24-well tissue culture plates in Dulbecco's Modified Eagle Media with 10% fetal bovine serum, MEM non-essential amino acids, Penicillin-Streptompycin and Geneticin. On the day of test procedure, growth medium was replaced with preincubation media (Dulbecco's Modified Eagle, Media) and incubated for 30 minutes at 37° C. […] Test compounds were tested over a concentration range of 10^−9 M to 10^−5 M for β3 cells and 10^−8 to 10^−4 M for β1 and β2 transfected cells. Isoproterenol (10^−5 M) was used as an internal standard for comparison of activity. Cells were incubated at 37° C. on a rocker for 30 min with the β3 cells and 15 min for β1 and β2 cells. Incubation was stopped with the addition of 0.2N HCl and neutralized with 2.5N NaOH. The plates, containing the cells and neutralized media, were stored at −20 degrees celsius until ready to test for cAMP using the SPA test kit (Amersham).
Data Analysis and Results: Data collected from the SPA test procedure were analyzed as percent of the maximal isoproterenol response at 10^−5 M. Activity curves were plotted using the SAS statistical and graphics software.

T1 sequence (P13945 whole entry): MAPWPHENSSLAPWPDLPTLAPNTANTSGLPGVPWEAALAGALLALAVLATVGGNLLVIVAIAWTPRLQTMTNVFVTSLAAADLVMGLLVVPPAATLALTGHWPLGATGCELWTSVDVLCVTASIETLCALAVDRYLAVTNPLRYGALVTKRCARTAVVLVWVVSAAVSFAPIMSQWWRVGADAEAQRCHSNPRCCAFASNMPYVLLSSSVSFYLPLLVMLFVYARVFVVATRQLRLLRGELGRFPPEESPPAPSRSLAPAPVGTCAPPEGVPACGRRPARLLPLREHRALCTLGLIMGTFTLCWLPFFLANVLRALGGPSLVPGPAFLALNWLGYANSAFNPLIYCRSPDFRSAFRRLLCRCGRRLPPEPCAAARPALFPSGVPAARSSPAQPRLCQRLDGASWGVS

Row | Compound | IA(β3)
1 | O=C1NC(=O)C(Cc2ccc(S(=O)(=O)Nc3ccc(N4CCC(NC[C@H](O)COc5cccc6[nH]c(=O)[nH]c56)CC4)cc3)cc2)S1 (stereo partly drawn) [Example 301, 4-[(2,4-Dioxo-1,3-thiazolidin-5-yl)methyl]-N-{4-[4-({(2S)-2-hydroxy-3-[(2-oxo-2,3-dihydro-1H-benzimidazol-4-yl)oxy]propyl}amino)-1-piperidinyl]phenyl}-benzenesulfonamide] | 0.95
2 | CS(=O)(=O)Nc1cc(C(O)CNC2CCN(c3ccc(NS(=O)(=O)c4ccc(CC5SC(=O)NC5=O)cc4)cc3)CC2)ccc1O (stereo not drawn) [Example 302, 4-[(2,4-Dioxo-1,3-thiazolidin-5-yl)methyl]-N-(4-{4-[(2-hydroxy-2-{4-hydroxy-3-[(methylsulfonyl)amino]phenyl}ethyl)amino]-1-piperidinyl}phenyl)benzenesulfonamide] | 0.95
3 | COc1ccc(S(=O)(=O)Nc2ccc(N3CCC(NC[C@H](O)COc4ccc(O)c5c4CCC(=O)N5)CC3)cc2)cc1OC [Example 303, N-{4-[4-({(2S)-2-Hydroxy-3-[(8-hydroxy-2-oxo-1,2,3,4-tetrahydro-5-quinolinyl)oxy]-propyl}amino)-1-piperidinyl]phenyl}-3,4-dimethoxybenzenesulfonamide] | 0.96
4 | CCCCCCCCS(=O)(=O)Nc1ccc(N2CCC(NC[C@H](O)COc3ccc(O)cc3)CC2)cc1 [Example 304, N-[4-(4-{[(2S)-2-Hydroxy-3-(4-hydroxyphenoxy)propyl]amino}-1-piperidinyl)phenyl]-1-octanesulfonamide] | 0.35
5 | CCCCCCNC(=O)Nc1ccc(S(=O)(=O)Nc2ccc(N3CCC(NC[C@H](O)COc4ccc(O)c5c4CCC(=O)N5)CC3)cc2)cc1 [Example 305, 4-{[(Hexylamino)carbonyl]amino}-N-{4-[4-({(2S)-2-hydroxy-3-[(8-hydroxy-2-oxo-1,2,3,4-tetrahydro-5-quinolinyl)oxy]propyl}amino)-1-piperidinyl]phenyl}benzenesulfonamide] | 1
6 | CCCCS(=O)(=O)Nc1ccc(N2CCC(NC[C@H](O)COc3ccc(O)c4c3CCC(=O)N4)CC2)cc1 [Example 306, N-{4-[4-({(2S)-2-Hydroxy-3-[(8-hydroxy-2-oxo-1,2,3,4-tetrahydro-5-quinolinyl)oxy]-propyl}amino)-1-piperidinyl]phenyl}-1-butanesulfonamide] | 1.1
7 | CC(=O)Nc1ccc(S(=O)(=O)Nc2ccc(N3CCC(NC[C@H](O)COc4ccc(O)c5c4CCC(=O)N5)CC3)cc2)cc1 [Example 307, N-[4-({4-[4-({(2S)-2-Hydroxy-3-[(8-hydroxy-2-oxo-1,2,3,4-tetrahydro-5-quinolin)oxy]propyl}amino)-1-piperidinyl]anilino}sulfonyl)phenyl]acetamide] | 1
8 | COc1ccc(S(=O)(=O)Nc2ccc(N3CCC(NC[C@H](O)COc4ccc(O)c(NS(C)(=O)=O)c4)CC3)cc2)cc1OC [Example 308, N-(4-{4-[((2S)-2-Hydroxy-3-{4-hydroxy-3-[(methylsulfonyl)amino]phenoxy}propyl)-amino]-1-piperidinyl}phenyl)-4-dimethoxybenzenesulfonamide] | 1.4
9 | CCCCS(=O)(=O)Nc1ccc(N2CCC(NC[C@H](O)COc3ccc(O)c(NS(C)(=O)=O)c3)CC2)cc1 [Example 309, N-(4-{4-[((2S)-2-Hydroxy-3-{4-hydroxy-3-[(methylsulfonyl)amino]phenoxy}-propyl)amino]-1-piperidinyl}phenyl)-1-butanesulfonamide] | 1
10 | CCCCCCNC(=O)Nc1ccc(S(=O)(=O)Nc2ccc(N3CCC(NC[C@H](O)COc4ccc(O)c(NS(C)(=O)=O)c4)CC3)cc2)cc1 [Example 310] | 1
11 | CCCCCCNC(=O)Nc1ccc(S(=O)(=O)Nc2ccc(N3CCC(NC[C@H](O)c4cccc(Cl)c4)CC3)cc2)cc1 [Example 311, N-[4-(4-{[(2R)-2-(3-Chlorophenyl)-2-hydroxyethyl]amino-}-piperidinyl)phenyl]-4-{[(hexylamino)carbonyl]amino}benzenesulfonamide] | 0.82
12 | CCOC(=O)Cc1ccc(S(=O)(=O)Nc2ccc(N3CCC(NC[C@H](O)COc4ccc(O)c(NS(C)(=O)=O)c4)CC3)cc2)cc1 [Example 312, Ethyl{4-[(4-}4-[((2S)-2hydroxy-3-{4-hydroxy-3-[(methylsulfonyl)amino]-phenoxy{propyl)amino]-1-piperidinyl}anilino)sulfonyl]phenyl}acetate] | 1.1
13 | COC(=O)COc1ccc(S(=O)(=O)Nc2ccc(N3CCC(NC[C@H](O)c4ccc(O)c(NS(C)(=O)=O)c4)CC3)cc2)cc1 [Example 313, Methyl{4-[(4-{4-[((2R)-2-hydroxy-2-{4-hydroxy-3-[(methylsulfonyl)amino]-phenyl}ethyl)amino]-1piperidinyl}anilino)sulfonyl]phenoxy}acetate] | 1
14 | CCCCS(=O)(=O)Nc1ccc(N2CCC(NC[C@H](O)COc3ccc(O)c(NS(=O)(=O)c4ccccc4)c3)CC2)cc1 [Example 315, N-[5-({(2S)-3-[(1-{4-[(Butylsulfonyl)amino]phenyl}-4-piperidinyl)amino]-2-hydroxypropyl}oxy)-2-hydroxyphenyl]benzenesulfonamide] | 1.2
15 | CS(=O)(=O)Nc1cc([C@@H](O)CNC2CCN(c3ccc(NS(=O)(=O)c4ccc(C(=O)O)cc4)cc3)CC2)ccc1O [Example 317, 4-[(4-{4-[((2R)-2-Hydroxy-2-{4-hydroxy-3-[(methylsulfonyl)amino]phenyl}ethyl)amino]-1-piperidinyl}anilino)sulfonyl]benzoic acid] | 0.97
16 | CCOC(=O)c1ccc(S(=O)(=O)Nc2ccc(N3CCC(NC[C@H](O)c4ccc(O)c(NS(C)(=O)=O)c4)CC3)cc2)cc1 [Example 318, Ethyl4-[(4-{4-[((2R)-2-hydroxy-2-{4-hydroxy-3-[(methylsulfonyl)amino]phenyl}ethyl)-amino]-1-piperidinyl}anilino)sulfonyl]benzoate] | 1
17 | COC(=O)COc1ccc(S(=O)(=O)Nc2ccc(N3CCC(NC[C@H](O)c4ccc(Cl)c(NS(C)(=O)=O)c4)CC3)cc2)cc1 [Example 319, Methyl{4-[(4-{4-[((2R)-2-{4-chloro-3-[(methylsulfonyl)amino]phenyl}-2-hydroxyethyl)amino]-1-piperidinyl}anilino)sulfonyl]phenoxy}acetate] | 0.79
18 | COC(=O)c1sccc1S(=O)(=O)Nc1ccc(N2CCC(NC[C@H](O)c3ccc(O)c(NS(C)(=O)=O)c3)CC2)cc1 [Example 320, Methyl3-[(4-{4-[((2R)-2-hydroxy-2-{4-hydroxy-3-[(methylsulfonyl)amino]-phenyl}ethyl)amino]-1-piperidinyl}anilino)sulfonyl]-2-thiophenecarboxylate] | 0.87
19 | CS(=O)(=O)Nc1cc([C@@H](O)CNC2CCN(c3ccc(NS(=O)(=O)c4ccsc4C(=O)O)cc3)CC2)ccc1O [Example 321, 3-[(4-{4-[((2R)-2-Hydroxy-2-{4-hydroxy-3-[(methylsulfonyl)amino]phenyl}ethyl)amino]-1-piperidinyl}anilino)sulfonyl]-2-thiophenecarboxylic acid] | 1.05
20 | CS(=O)(=O)Nc1cc([C@@H](O)CNC2CCN(c3ccc(NS(=O)(=O)CC(=O)OCc4ccccc4)cc3)CC2)ccc1O [Example 322, Benzyl[(4-{4-[((2R)-2-hydroxy-2-{4-hydroxy-3-[(methylsulfonyl)amino]phenyl}-ethyl)amino]-1-piperidinyl}anilino)sulfonyl]acetate] | 0.89
21 | CS(=O)(=O)Nc1cc([C@@H](O)CNC2CCN(c3ccc(NS(=O)(=O)CC(=O)O)cc3)CC2)ccc1O [Example 323, [(4-{4-[((2R)-2-Hydroxy-2-{4-hydroxy-3-[(methylsulfonyl)amino]phenyl}ethyl)amino]-1-piperidinyl}anilino)sulfonyl]acetic acid] | 0.92
22 | CCCCN(c1ccc(N2CCC(NC[C@H](O)c3ccc(O)c(NS(C)(=O)=O)c3)CC2)cc1)S(=O)(=O)CC(=O)OCc1ccccc1 [Example 324, Benzyl[(butyl-4-{4-[((2R)-2-hydroxy-2-{4-hydroxy-3-[(methylsulfonyl)amino]phenyl}-ethyl)amino]-1-piperidinyl)anilino)sulfonyl}acetate] | 0.9
23 | CS(=O)(=O)Nc1cc([C@@H](O)CNC2CCN(c3ccc(NS(=O)(=O)c4cccnc4)cc3)CC2)ccc1O [Example 326, N-(4-{4-[((2R)-2-Hydroxy-2-{4-hydroxy-3-[(methylsulfonyl)amino]phenyl}ethyl)amino]-1-piperidinyl}phenyl)-3-pyridinesulfonamide] | 1.3
24 | O=c1[nH]c2cccc(OC[C@@H](O)CNC3CCN(c4ccc(NS(=O)(=O)c5ccc(Cl)c(Cl)c5)cc4)CC3)c2[nH]1 [Example 327, 3,4-Dichloro-N-{4-[4-({(2S)-2-hydroxy-3-[(2-oxo-2,3-dihydro-1H-benzimidazol-4-yl)oxy]propyl}amino)-1-piperidinyl]phenyl}benzenesulfonamide] | 0.86
